{
  "source": "patent US20210361673A1",
  "about": "“COMPOSITIONS AND METHODS OF TREATING VIRAL INFECTIONS” (Lipocine Inc., priority 2020, published 2021)",
  "assay": "Mean marker change from baseline after treatment (TU, TT 14-day, TD single dose, TU depot injection, topical T after 7 days)",
  "assay_type": "in vivo",
  "details": "for Cmax to mean Cave ratio: range calculated from the average low and average high for the 5 arms tested",
  "excerpt": "The mean marker change from baseline in the foregoing tables can be measured at various times including: hours after treatment commences, 7 to 14 days after treatment commences, and during treatment.\nA-E are all the 14-day timepoint\nTU Depot Injection—after Single Dose",
  "note": "Marks after values point to notes of the source that are not given here.",
  "data": [
    {"smiles": "CCCCCCCCCCCCC(=O)O[C@H]1CC[C@H]2[C@@H]3CCC4=CC(=O)CC[C@]4(C)[C@H]3CC[C@]12C", "note": "[TT, testosterone tridecanoate]", "values": [
      {"measurement": "Mean marker change from baseline in serum (e.g. IL-2, IL-6, TNF-Alpha, CRP, SHBG, MCP-1, AST, ALT, ALP)", "setting": "total daily TT dose 300 mg", "result": "−5% to −35%"},
      {"measurement": "Cmax to mean Cave ratio", "setting": "total daily TT dose 300 mg", "result": "1.72-3.08*"},
      {"measurement": "Mean marker change from baseline in serum (e.g. IL-2, IL-6, TNF-Alpha, CRP, SHBG, MCP-1, AST, ALT, ALP)", "setting": "total daily TT dose 2700 mg", "result": "−5% to −35%"},
      {"measurement": "Cmax to mean Cave ratio", "setting": "total daily TT dose 2700 mg", "result": "1.72-3.09*"}
    ]}
  ]
}
